The values below come from patent US8686150B2 (Sanofi, priority 2011, dated 2014).

A word on the inhibition: it is the drop in the measured response relative to a control, in per cent. The % Inhibition is how much of the control response was suppressed.

The target of the assay is T1, human full-length recombinant PKC βII (Homo sapiens, UniProt P05771).
T1 construct: Active human full-length recombinant PKC βII; purchased Invitrogen GmbH, Darmstadt, Germany
T1 sequence (P05771 1-673 isoform P05771-2): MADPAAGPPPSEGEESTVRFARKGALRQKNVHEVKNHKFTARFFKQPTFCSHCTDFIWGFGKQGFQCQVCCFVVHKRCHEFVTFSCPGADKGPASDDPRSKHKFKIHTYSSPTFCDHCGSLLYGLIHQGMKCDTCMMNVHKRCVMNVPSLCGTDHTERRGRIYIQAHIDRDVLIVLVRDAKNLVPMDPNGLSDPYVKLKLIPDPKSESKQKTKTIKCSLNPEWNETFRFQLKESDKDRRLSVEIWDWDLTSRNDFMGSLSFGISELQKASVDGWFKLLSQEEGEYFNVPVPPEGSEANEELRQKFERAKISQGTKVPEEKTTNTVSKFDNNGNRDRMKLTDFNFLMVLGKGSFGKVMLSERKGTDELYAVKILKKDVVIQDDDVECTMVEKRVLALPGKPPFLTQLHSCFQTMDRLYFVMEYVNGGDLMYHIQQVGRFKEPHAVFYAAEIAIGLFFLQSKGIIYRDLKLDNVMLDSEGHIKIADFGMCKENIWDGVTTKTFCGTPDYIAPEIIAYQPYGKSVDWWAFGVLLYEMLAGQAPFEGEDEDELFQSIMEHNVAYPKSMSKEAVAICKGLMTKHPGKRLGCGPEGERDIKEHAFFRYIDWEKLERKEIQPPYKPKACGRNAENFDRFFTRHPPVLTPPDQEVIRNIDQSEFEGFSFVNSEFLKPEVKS
The assay is described as follows: Determination of PKC βII inhibition (Caliper mobility-shift kinase assay, Fluorescein-RFARKGSLRQKNV peptide substrate). It counts as biochemical. The settings on record: example compounds at a final concentration of 1.14 μM (±0.15 μM). How it is done: Determination of PKC βII Inhibition
PKC βII Inhibition was Determined According to the Following Protocol:
Active human full-length recombinant PKC βII and the peptide substrate, Fluorescein-RFARKGSLRQKNV, were purchased from Invitrogen GmbH, Darmstadt, Germany. Adenosine-5′-triphosphate (ATP), bovine serum albumine (BSA), dimethylsulphoxide (DMSO), 4-(2-hydroxyethyl)piperazine-1-ethanesulfonic acid (Hepes), Triton X-100, 1,2-Dioleoyl-sn-glycerol (DAG), L-G-Phosphatidyl-L-serine (PS), calcium chloride (CaCl2), and Pluronic F-68 were purchased from Sigma-Aldrich, Munich, Germany. Magnesium chloride, 1 M sodium hydroxide solution, 1M hydrochloric acid solution and EDTA were obtained from Merck Biosciences, Darmstadt, Germany.
Test compounds were diluted to three times the test concentration in buffer 1 (30 mM Hepes-NaOH, pH 7.4, 0.01% Pluronic F-68 and 3% (v/v) DMSO). The PKC enzyme was diluted to a concentration of 30 ng/ml in buffer 2 (30 mM Hepes-NaOH, pH 7.4, 15 mM MgCl2, 150 μM CaCl2, 150 μg/ml PS, 60 μg/ml DAG, and 0.045% (w/v) Triton X-100). The peptide substrate and ATP were diluted to concentrations of 3 μM and 120 μM, respectively, in buffer 2. Two μl of the compound solution were mixed with 2 μl of the diluted enzyme in a 384-well small volume microtiter plate (Greiner, Bio-One, Frickenhausen, Germany), and the kinase reaction was initiated by addition of 2 μl of the solution containing peptide substrate and ATP. After 60 min incubation at 32° C., the reaction was stopped by addition of 20 μl of a solution containing 130 mM Hepes-NaOH, pH 7.4. 0.0195% (v/v) Brij-35, 6.5 mM EDTA. 0.13% chip coating reagent 3 (Caliper Lifescience Inc, Hopkinton, Mass.) and 6.5% (v/v) DMSO. Phosphorylation of the substrate peptide was then detected on a Caliper 3000 instrument essentially as described by Pommereau et al (J. Biomol. Screening 2004, 9(5), 409-416). Separation conditions were as follows: Pressure −0.8 psi, upstream voltage −3000 V, downstream voltage −800 V. Positive controls (buffer 1 instead of compound) and negative controls (buffer 1 instead of compound and buffer 2 instead of kinase solution) were run in parallel on each plate. Fractional turnover (R) was determined as the height of the peak of the phosphorylated peptide product divided by the sum of the unphosphorylated substrate and phosphorylated product peak heights. Percent-inhibition values for the test compounds were determined using the formula % Inhibition=100*(1−(Rcompound−Rnegative control)/(Rpositive control−Rnegative control).
In the following table % inhibition values observed with example compounds at a final concentration of 1.14 μM (±0.15 μM) are listed: […]
With `Cc1n[nH]c2nc(-c3ccc(O)cc3)cc(C(=O)N3CCNCC3c3cccc(F)c3F)c12` (stereo not shown) [Example 85, [2-(2,3-Difluoro-phenyl)-piperazin-1-yl]-[6-(4-hydroxy-phenyl)-3-methyl-1H-pyrazolo[3,4-b]pyridin-4-yl]-methanone], the inhibition at 1.14 µM was 98%.
On the same count and under the same terms, to `Cc1n[nH]c2nc(-c3ccc(O)c(F)c3)cc(C(=O)N3CCNC[C@@H]3C)c12` [Example 313, [6-(3-Fluoro-4-hydroxy-phenyl)-3-methyl-1H-pyrazolo[3,4-b]pyridin-4-yl]-((S)-2-methyl-piperazin-1-yl)-methanone] belongs 99%; to `Cc1n[nH]c2nc(-c3ccc(O)cc3)cc(C(=O)N(C)CCNC(C)(C)C)c12` [Example 40, 6-(4-Hydroxy-phenyl)-3-methyl-1H-pyrazolo[3,4-b]pyridine-4-carboxylic acid (2-tert-butylamino-ethyl)-methyl-amide], 38%.
As to `CCc1n[nH]c2nc(-c3ccc(O)cc3)cc(C(=O)NC3CC4CCC(C3)N4C)c12` [Example 164, 3-Ethyl-6-(4-hydroxy-phenyl)-1H-pyrazolo[3,4-b]pyridine-4-carboxylic acid ((3R)-8-methyl-8-aza-bicyclo[3.2.1]oct-3-yl)-amide], the “% Inhibition” value worked out at 53%.
Turning to `CCN1CC2CC1CN2C(=O)c1cc(-c2ccc(O)c(F)c2)nc2[nH]nc(C)c12` (stereo not shown) [Example 358, (5-Ethyl-2,5-diaza-bicyclo[2.2.1]hept-2-yl)-[6-(3-fluoro-4-hydroxy-phenyl)-3-methyl-1H-pyrazolo[3,4-b]pyridin-4-yl]-methanone], the inhibition at 1.14 µM amounted to 28%.
On the same count and under the same terms, to `Cc1n[nH]c2nc(-c3ccc(O)cc3F)cc(C(=O)N3C[C@@H](c4ccccc4)NC[C@@H]3C)c12` (relative stereo) [Example 447, [6-(2-Fluoro-4-hydroxy-phenyl)-3-methyl-1H-pyrazolo[3,4-b]pyridin-4-yl]-(trans-2-methyl-5-phenyl-piperazin-1-yl)-methanone] belongs 83%.
Still for that read-out and setting: to `Cc1n[nH]c2nc(-c3ccc(O)cc3)cc(C(=O)N3CCNCC3c3cccc(Br)c3)c12` (stereo not shown) [Example 101, [2-(3-Bromo-phenyl)-piperazin-1-yl]-[6-(4-hydroxy-phenyl)-3-methyl-1H-pyrazolo[3,4-b]pyridin-4-yl]-methanone] belongs 99%; to `Cc1n[nH]c2nc(-c3ccc(O)cc3F)cc(C(=O)N3C[C@@H](C)N(CC4CCOC4)C[C@@H]3C)c12` (stereo partly drawn) [Example 455, [(2S,5R)-2,5-Dimethyl-4-(tetra-hydro-furan-3-ylmethyl)-piperazin-1-yl]-[6-(2-fluoro-4-hydroxy-phenyl)-3-methyl-1H-pyrazolo[3,4-b]pyridin-4-yl]-methanone], 92%.
Still for that read-out and setting: to `Cc1n[nH]c2nc(-c3ccc(O)cc3)cc(C(=O)N3CC4CNCC4C3)c12` (stereo not shown) [Example 192, (Hexahydro-pyrrolo[3,4-c]pyrrol-2-yl)-[6-(4-hydroxy-phenyl)-3-methyl-1H-pyrazolo[3,4-b]pyridin-4-yl]-methanone] belongs 99%; to `Cc1n[nH]c2nc(-c3ccc(O)cc3)cc(C(=O)N3CCN[C@@H](CC(C)C)C3)c12` [Example 215, [6-(4-Hydroxy-phenyl)-3-methyl-1H-pyrazolo[3,4-b]pyridin-4-yl]-((S)-3-isobutyl-piperazin-1-yl)-methanone], 99%.
On to `COC[C@H]1CN(C(=O)c2cc(-c3ccc(O)c(F)c3)nc3[nH]nc(C)c23)CCN1` [Example 298, [6-(3-Fluoro-4-hydroxy-phenyl)-3-methyl-1H-pyrazolo[3,4-b]pyridin-4-yl]-((R)-3-methoxymethyl-piperazin-1-yl)-methanone], for which the inhibition at 1.14 µM is 68%.
As for `Cc1n[nH]c2nc(-c3ccc(O)cc3)cc(C(=O)NC(C)(C)CCN)c12` [Example 128, 6-(4-Hydroxy-phenyl)-3-methyl-1H-pyrazolo[3,4-b]pyridine-4-carboxylic acid (3-amino-1,1-dimethyl-propyl)-amide], the inhibition at 1.14 µM was determined as 91%.
The same measure, in the same setting: under `Cc1cc(O)cc(C)c1-c1cc(C(=O)N2CCNCC2(C)C)c2c(C)n[nH]c2n1` [Example 156, (2,2-Dimethyl-piperazin-1-yl)-[6-(4-hydroxy-2,6-dimethyl-phenyl)-3-methyl-1H-pyrazolo[3,4-b]pyridin-4-yl]-methanone] stands 26%; under `COc1cc(-c2cc(C(=O)N3CCNCC3)c3c(C)n[nH]c3n2)ccc1O` [Example 10, [6-(4-Hydroxy-3-methoxy-phenyl)-3-methyl-1H-pyrazolo[3,4-b]pyridin-4-yl]-piperazin-1-yl-methanone], 29%.
The same measure, in the same setting: to `COc1cccc(C2CNCCN2C(=O)c2cc(-c3ccc(O)cc3)nc3[nH]nc(C)c23)c1` (stereo not shown) [Example 72, [6-(4-Hydroxy-phenyl)-3-methyl-1H-pyrazolo[3,4-b]pyridin-4-yl]-[2-(3-methoxy-phenyl)-piperazin-1-yl]-methanone] belongs 94%; to `Cc1n[nH]c2nc(-c3ccc(O)cc3F)cc(C(=O)N3C(C)CNCC3C)c12` (stereo not shown) [Example 444, (2,6-Dimethyl-piperazin-1-yl)-[6-(2-fluoro-4-hydroxy-phenyl)-3-methyl-1H-pyrazolo[3,4-b]pyridin-4-yl]-methanone], 99%.
The same measure, in the same setting: under `Cc1n[nH]c2nc(-c3ccc(O)cc3F)cc(C(=O)N3CCC(N)(c4ccccc4)CC3)c12` [Example 415, (4-Amino-4-phenyl-piperidin-1-yl)-[6-(2-fluoro-4-hydroxy-phenyl)-3-methyl-1H-pyrazolo[3,4-b]pyridin-4-yl]-methanone] stands 90%; under `Cc1n[nH]c2nc(-c3ccc(O)cc3)cc(C(=O)N3CC4CCCCN4CC3C)c12` (stereo not shown) [Example 285, [6-(4-Hydroxy-phenyl)-3-methyl-1H-pyrazolo[3,4-b]pyridin-4-yl]-(3-methyl-octahydro-pyrido[1,2-a]pyrazin-2-yl)-methanone], 76%.
Turning to `Cc1n[nH]c2nc(-c3ccc(O)c(F)c3)cc(C(=O)NC3CC4CC3CN4)c12` (stereo not shown) [Example 350, 6-(3-Fluoro-4-hydroxy-phenyl)-3-methyl-1H-pyrazolo[3,4-b]pyridine-4-carboxylic acid (2-aza-bicyclo[2.2.1]hept-5-yl)-amide], the inhibition at 1.14 µM came to 77%.
Same read-out and setting: to `CCC(CCN)NC(=O)c1cc(-c2ccc(O)cc2F)nc2[nH]nc(C)c12` (stereo not shown) [Example 65, 6-(2-Fluoro-4-hydroxy-phenyl)-3-methyl-1H-pyrazolo[3,4-b]pyridine-4-carboxylic acid (3-amino-1-ethyl-propyl)-amide] belongs 94%.
On the same count and under the same terms, under `Cc1n[nH]c2nc(-c3ccc(O)cc3F)cc(C(=O)N3C[C@@H](C)NC[C@H]3C)c12` [Example 428, ((2R,5R)-2,5-Dimethyl-piperazin-1-yl)-[6-(2-fluoro-4-hydroxy-phenyl)-3-methyl-1H-pyrazolo[3,4-b]pyridin-4-yl]-methanone] stands 35%.
For the compound `Cc1n[nH]c2nc(-c3ccc(O)cc3F)cc(C(=O)N3CCNCC34CC4)c12` [Example 64, (4,7-Diaza-spiro[2.5]oct-4-yl)-[6-(2-fluoro-4-hydroxy-phenyl)-3-methyl-1H-pyrazolo[3,4-b]pyridin-4-yl]-methanone], the inhibition at 1.14 µM stood at 98%.
The same measure, in the same setting: under `Cc1n[nH]c2nc(-c3ccc(O)cc3)cc(C(=O)N3CCC4(CC3)CNC4)c12` [Example 255, (2,7-Diaza-spiro[3.5]non-7-yl)-[6-(4-hydroxy-phenyl)-3-methyl-1H-pyrazolo[3,4-b]pyridin-4-yl]-methanone] stands 90%; under `Cc1n[nH]c2nc(-c3ccc(O)cc3)cc(C(=O)N3CCN4CCC[C@H]4C3)c12` [Example 383, (S)-Hexahydro-pyrrolo[1,2-a]pyrazin-2-yl-[6-(4-hydroxy-phenyl)-3-methyl-1H-pyrazolo[3,4-b]pyridin-4-yl]-methanone], 66%.
On the same count and under the same terms, to `CCc1n[nH]c2nc(-c3ccc(O)cc3)cc(C(=O)N3CCC(N)CC3)c12` [Example 166, (4-Amino-piperidin-1-yl)-[3-ethyl-6-(4-hydroxy-phenyl)-1H-pyrazolo[3,4-b]pyridin-4-yl]-methanone] belongs 87%.
